Results as given in patent US12162861B2, “Dopamine D3 receptor selective antagonists/partial agonists; method of making; and use thereof” (THE UNITED STATES OF AMERICA, AS REPRESENTED BY THE …, priority 2016, dated 2024).
Entries after “also recorded” stand apart in the source; their conditions may differ.

Legend:
squirrel monkeys = assay: Food self-administration in squirrel monkeys; type: in vivo, squirrel monkey (Saimiri sciureus); details: squirrel monkeys, 1, 3, and 10 mg/kg i.m., FIG. 8
Excerpt: Subjects: Seven adult male squirrel monkeys (Saimiri sciureus) weighing 0.8 to 1.1 kg were housed in individual cages in a temperature- and humidity-controlled room with unrestricted access to water. […] The monkeys were trained to self-administer either THC or food pellets prior to the study. Monkeys were fed (approximately two hours after the session) a daily food ration consisting of biscuits of high protein monkey diet (Lab Diet 5045, PMI Nutrition International, Richmond, Indiana). The number of biscuits (8-14) was determined for each monkey individually to maintain their body weights at a constant level throughout the study. Monkeys self-administering food pellets had the number of biscuits adjusted to maintain the motivation to perform a food-reinforced task. Fresh fruits, vegetables and environmental enrichment were provided daily. […]
Data analysis: The number of reinforcements (injections or pellets) per session represents total number of injections delivered during each 1-hour session. The rates of responding are expressed as responses per second averaged over the 1 h session, with time and responding during time-outs not included in calculations. Data are expressed as mean response rates and numbers of reinforcements per session ±SEM. […]

cannabinoid CB1 receptor = cannabinoid CB1 receptor (Homo sapiens, UniProt P21554); assay: Binding to cannabinoid CB1 receptor
Chain of cannabinoid CB1 receptor (P21554 whole entry): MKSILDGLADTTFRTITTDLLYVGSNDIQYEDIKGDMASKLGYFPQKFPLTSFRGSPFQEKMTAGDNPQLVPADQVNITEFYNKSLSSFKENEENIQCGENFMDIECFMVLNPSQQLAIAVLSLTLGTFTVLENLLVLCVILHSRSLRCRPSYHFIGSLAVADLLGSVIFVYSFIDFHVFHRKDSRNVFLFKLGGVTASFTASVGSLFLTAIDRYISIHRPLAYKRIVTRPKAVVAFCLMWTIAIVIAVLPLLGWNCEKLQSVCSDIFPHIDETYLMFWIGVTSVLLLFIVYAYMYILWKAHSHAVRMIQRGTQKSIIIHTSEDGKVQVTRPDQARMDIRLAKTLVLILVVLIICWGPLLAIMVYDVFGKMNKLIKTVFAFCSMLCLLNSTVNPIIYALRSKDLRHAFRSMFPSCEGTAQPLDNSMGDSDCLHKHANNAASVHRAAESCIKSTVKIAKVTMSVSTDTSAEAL

For CCc1cc(Cl)c(OC)c(N2CCN(CC(O)CCNC(=O)c3cc4ccccc4[nH]3)CC2)c1 (racemic) [Compound 29, N-(4-(4-(3-chloro-5-ethyl-2-methoxyphenyl)piperazin-1-yl)-3-hydroxybutyl)-1H-indole-2-carboxamide], the food self-administration (squirrel monkeys) was “has no effect on food self-administration; also recorded: without affecting food self-administration”, the food self-administration (squirrel monkeys; listed as (±)-29) was “no effect on food self-administration” and the “binding to cannabinoid CB1 receptor” value (cannabinoid CB1 receptor) was “does not bind”.
